Test results published in US20240132431A1, “METHOD FOR ALKYLATING ACIDIC FUNCTIONAL GROUP” (Chugai Seiyaku Kabushiki Kaisha, priority 2021, published 2024).
Each block holds one molecule with its values, some of them ahead of it.

Molecular target: T1, Bcl-2 protein (Recombinant Human Bcl-2 Protein) (Homo sapiens, UniProt P10415)
T1 construct: purchased Novus NBP2-34889
Experiment: Binding evaluation of mixture library compounds to Bcl-2 using AS-MS (affinity selection mass spectrometry)
Conditions: for ASMS ratio (%) n = 1 / ASMS ratio (%) n = 2: ASMS Ratio(%)=(A−C)/B×100; for ASMS ratio (%) n = 1: replicate n = 1; for ASMS ratio (%) n = 2: replicate n = 2
In short: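 Bcl-2 binding is scored from LC/MS signal retained with protein through gel-filtration spin columns, normalised to unfiltered and protein-free controls. Incubation: 20 μM protein, […] per compound, 1 h, 23° C.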

[1] = AS-MS on the mixture of 1200 library compounds
[2] = AS-MS, mixture of 1200 compounds, Bcl-2

T1 sequence (P10415 whole entry): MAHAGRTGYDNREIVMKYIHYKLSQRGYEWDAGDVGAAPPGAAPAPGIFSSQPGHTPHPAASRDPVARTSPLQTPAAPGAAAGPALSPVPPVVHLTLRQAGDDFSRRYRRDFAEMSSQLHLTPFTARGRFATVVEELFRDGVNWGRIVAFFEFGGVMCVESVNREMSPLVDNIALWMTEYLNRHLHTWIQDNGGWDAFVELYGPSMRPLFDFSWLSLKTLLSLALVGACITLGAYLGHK

Molecule: CCOc1cccc(-c2ccc(CN3CCN(c4ccc(C(=O)N(CC)CC)cc4)CC3)c(OC)c2)c1 [B4J053-01, 4-[4-[[4-(3-Ethoxyphenyl)-2-methoxyphenyl]methyl]piperazin-1-yl]-N,N-diethylbenzamide]
- ASMS ratio (%) n = 1 [1]: −0.1%
- ASMS ratio (%) n = 2 [1]: −6.0%

- ASMS ratio (%) (n = 1): 0.0%
- ASMS ratio (%) (n = 2): 1.4%
Molecule: CCOc1cccc(-c2ccc(CN3CCN(c4ccc(C(=O)NS(=O)(=O)CCC(F)(F)F)cc4)CC3)c(OC)c2)c1 [B2N053-01, 4-[4-[[4-(3-Ethoxyphenyl)-2-methoxyphenyl]methyl]piperazin-1-yl]-N-(3,3,3-trifluoropropylsulfonyl)benzamide]

- ASMS ratio (%) n = 1 (AS-MS, mixture library, Bcl-2): 0.0%
- ASMS ratio (%) n = 2 (AS-MS, mixture library, Bcl-2): 0.0%
Molecule: CCOc1cncc(-c2csc(CN3CCN(c4ccc(C(=O)NS(=O)(=O)CC56CC7CC(CC(C7)C5)C6)cc4)CC3)c2)c1 [B2A068-01, N-(1-Adamantylmethylsulfonyl)-4-[4-[[4-(5-ethoxypyridin-3-yl)thiophen-2-yl]methyl]piperazin-1-yl]benzamide]

- ASMS ratio (%) (n = 1): 0.0%
- ASMS ratio (%) (n = 2): 0.0%
Molecule: CCOc1cncc(-c2cc(CN3CCN(c4ccc(C(=O)NS(=O)(=O)CCC(F)(F)F)nn4)CC3)cc(C(F)(F)F)c2)c1 [B2N088-01, 6-[4-[3-(5-Ethoxypyridin-3-yl)-5-(trifluoromethyl)phenylmethyl]piperazin-1-yl]-N-(3,3,3-trifluoropropylsulfonyl)pyridazine-3-carboxamide]

- ASMS ratio (%) (n = 1): 0.0%
- ASMS ratio (%) (n = 2): 0.0%
Molecule: CCOc1cccc(-c2ccc(CN3CCN(c4ccc(C(=O)NS(C)(=O)=O)nn4)CC3)c(OC)c2)c1 [B2I079-01, 6-[4-[[4-(3-Ethoxyphenyl)-2-methoxyphenyl]methyl]piperazin-1-yl]-N-methylsulfonylpyridazine-3-carboxamide]

- ASMS ratio (%) n = 1 (AS-MS, mixture library, Bcl-2): 3.7%
- ASMS ratio (%) n = 2 (AS-MS, mixture library, Bcl-2): 3.7%
Molecule: CCOc1cncc(-c2cc(CN3CCN(c4ccc(C(=O)NS(=O)(=O)c5ccc(NCCSc6ccccc6)c([N+](=O)[O-])c5)cc4)CC3)cc(OC(C)C)c2)c1 [B2Q058-01, 4-[4-[[3-(5-Ethoxypyridin-3-yl)-5-propan-2-yloxyphenyl]methyl]piperazin-1-yl]-N-[3-nitro-4-(2-phenylsulfanylethylamino)phenyl]sulfonylbenzamide]

- ASMS ratio (%) n = 1 [2]: 4.1%
- ASMS ratio (%) n = 2 [2]: −0.7%
Molecule: CCOc1cncc(-c2ccc(CN3CCN(c4ccc(C(=O)NCC(F)(F)F)nn4)CC3)c3ccccc23)c1 [B1K092-01, 6-[4-[[4-(5-Ethoxypyridin-3-yl)naphthalen-1-yl]methyl]piperazin-1-yl]-N-(2,2,2-trifluoroethyl)pyridazine-3-carboxamide]

- ASMS ratio (%) n = 1 [1]: 0.0%
- ASMS ratio (%) n = 2 [1]: 0.0%
Molecule: CCOc1cncc(-c2ccc(CN3CCN(c4ccc(C(=O)N(C)CC56CC7CC(CC(C7)C5)C6)cc4)CC3)c(OC)c2)c1 [B3A054-01, N-(1-Adamantylmethyl)-4-[4-[[4-(5-ethoxypyridin-3-yl)-2-methoxyphenyl]methyl]piperazin-1-yl]-N-methylbenzamide]

- ASMS ratio (%) n = 1 [1]: 0.0%
- ASMS ratio (%) n = 2 [1]: 0.0%
Molecule: CCOc1cncc(C#Cc2ccccc2C(=O)N2CCN(c3ccc(C(=O)N(CC)CC)nn3)CC2)c1 [B4J008-01, 6-[4-[2-[2-(5-Ethoxypyridin-3-yl)ethynyl]benzoyl]piperazin-1-yl]-N,N-diethylpyridazine-3-carboxamide]

- ASMS ratio (%) n = 1 [1]: 6.7%
- ASMS ratio (%) n = 2 [1]: −0.9%
Molecule: CCOc1cncc(-c2cc(CN3CCN(c4ccc(C(=O)Nc5ccc(OC)cc5)cc4)CC3)cc(OCC)c2)c1 [B1O056-01, 4-[4-[[3-Ethoxy-5-(5-ethoxypyridin-3-yl)phenyl]methyl]piperazin-1-yl]-N-(4-methoxyphenyl)benzamide]

- ASMS ratio (%) n = 1 (AS-MS, mixture library, Bcl-2): 0.0%
- ASMS ratio (%) n = 2 (AS-MS, mixture library, Bcl-2): 0.0%
Molecule: CCOc1cncc(-c2cc(C(=O)N3CCN(c4ccc(C(=O)NS(C)(=O)=O)nn4)CC3)cc(C(F)(F)F)c2)c1 [B2I018-01, 6-[4-[3-(5-Ethoxypyridin-3-yl)-5-(trifluoromethyl)benzoyl]piperazin-1-yl]-N-methylsulfonylpyridazine-3-carboxamide]

Molecule: CCOc1cncc(-c2ccccc2CN2CCN(c3ccc(C(=O)N(CC)CC)cc3)CC2)c1 [B4J046-01]
- ASMS ratio (%) n = 1 [1]: 0.0%
- ASMS ratio (%) n = 2 [1]: 0.0%

- ASMS ratio (%) n = 1 [2]: −0.3%
- ASMS ratio (%) n = 2 [2]: 0.0%
Molecule: CCOc1cncc(-c2ccc(C(=O)N3CCN(c4ccc(C(=O)NCC(F)(F)F)nn4)CC3)c3ccccc23)c1 [B1K014-01, 6-[4-[4-(5-Ethoxypyridin-3-yl)naphthalene-1-carbonyl]piperazin-1-yl]-N-(2,2,2-trifluoroethyl)pyridazine-3-carboxamide]

- ASMS ratio (%) n = 1 [1]: −1.0%
- ASMS ratio (%) n = 2 [1]: −16.5%
Molecule: CCOc1cccc(-c2ccc(CN3CCN(c4ccc(C(=O)N(C)CC56CC7CC(CC(C7)C5)C6)nn4)CC3)c3ccccc23)c1 [B3A091-01, N-(1-Adamantylmethyl)-6-[4-[[4-(3-ethoxyphenyl)naphthalen-1-yl]methyl]piperazin-1-yl]-N-methylpyridazine-3-carboxamide]

- ASMS ratio (%) n = 1 [2]: 7.7%
- ASMS ratio (%) n = 2 [2]: −5.5%
Molecule: CCOc1cccc(-c2cc(OC)c(CN3CCN(c4ccc(C(=O)NCC56CC7CC(CC(C7)C5)C6)cc4)CC3)c(OC)c2)c1 [B1A059-01, N-(1-Adamantylmethyl)-4-[4-[[4-(3-ethoxyphenyl)-2,6-dimethoxyphenyl]methyl]piperazin-1-yl]benzamide]

- ASMS ratio (%) n = 1 [2]: 1.1%
- ASMS ratio (%) n = 2 [2]: −2.2%
Molecule: CCOc1cccc(-c2ccccc2CN2CCN(c3ccc(C(=O)NCC45CC6CC(CC(C6)C4)C5)cc3)CC2)c1 [B1A045-01, N-(1-Adamantylmethyl)-4-[4-[[2-(3-ethoxyphenyl)phenyl]methyl]piperazin-1-yl]benzamide]

- ASMS ratio (%) (n = 1): 0.0%
- ASMS ratio (%) (n = 2): 0.0%
Molecule: CCOc1cncc(-c2cc(CN3CCN(c4ccc(C(=O)NS(=O)(=O)c5ccc(NCCSc6ccccc6)c(C(F)(F)F)c5)nn4)CC3)cc(OCC)c2)c1 [B2R082-01, 6-[4-[[3-Ethoxy-5-(5-ethoxypyridin-3-yl)phenyl]methyl]piperazin-1-yl]-N-[4-(2-phenylsulfanylethylamino)-3-(trifluoromethyl)phenyl]sulfonylpyridazine-3-carboxamide]

- ASMS ratio (%) (n = 1): 3.8%
- ASMS ratio (%) (n = 2): 7.1%
Molecule: CCOc1cccc(-c2cc(CN3CCN(c4ccc(C(=O)NS(=O)(=O)c5ccc(NCCSc6ccccc6)c(C(F)(F)F)c5)nn4)CC3)cc(C(F)(F)F)c2)c1 [B2R087-01, 6-[4-[[3-(3-Ethoxyphenyl)-5-(trifluoromethyl)phenyl]methyl]piperazin-1-yl]-N-[4-(2-phenylsulfanylethylamino)-3-(trifluoromethyl)phenyl]sulfonylpyridazine-3-carboxamide]

- ASMS ratio (%) n = 1 [1]: 4.5%
- ASMS ratio (%) n = 2 [1]: −1.5%
Molecule: CCOc1cncc(-c2ccc(CN3CCN(c4ccc(C(=O)N(C)CC56CC7CC(CC(C7)C5)C6)nn4)CC3)cc2F)c1 [B3A078-01, N-(1-Adamantylmethyl)-6-[4-[[4-(5-ethoxypyridin-3-yl)-3-fluorophenyl]methyl]piperazin-1-yl]-N-methylpyridazine-3-carboxamide]

- ASMS ratio (%) n = 1 [2]: 4.7%
- ASMS ratio (%) n = 2 [2]: 1.2%
Molecule: CCOc1cncc(-c2ccc(CN3CCN(c4ccc(C(=O)NCC56CC7CC(CC(C7)C5)C6)nn4)CC3)cc2F)c1 [B1A078-01, N-(1-Adamantylmethyl)-6-[4-[[4-(5-ethoxypyridin-3-yl)-3-fluorophenyl]methyl]piperazin-1-yl]pyridazine-3-carboxamide]

- ASMS ratio (%) (n = 1): 14.3%
- ASMS ratio (%) (n = 2): −9.0%
Molecule: CCOc1cccc(-c2ccccc2CN2CCN(c3ccc(C(=O)NS(=O)(=O)c4ccc(NCCSc5ccccc5)c(C(F)(F)F)c4)nn3)CC2)c1 [B2R071-01, 6-[4-[[2-(3-Ethoxyphenyl)phenyl]methyl]piperazin-1-yl]-N-[4-(2-phenylsulfanylethylamino)-3-(trifluoromethyl)phenyl]sulfonylpyridazine-3-carboxamide]

Molecule: 4-[4-[3-[2-(3-Ethoxyphenyl)phenyl]propanoyl]piperazin-1-yl]-N-propylbenzamide [B1M068-01]
- ASMS ratio (%) n = 1 [2]: 1.1%
- ASMS ratio (%) n = 2 [2]: 0.0%

- ASMS ratio (%) n = 1 (AS-MS, mixture library, Bcl-2): 7.3%
- ASMS ratio (%) n = 2 (AS-MS, mixture library, Bcl-2): 2.8%
Molecule: CCOc1cncc(-c2cc(CN3CCN(c4ccc(C(=O)NS(=O)(=O)c5ccc(NCCSc6ccccc6)c([N+](=O)[O-])c5)cc4)CC3)cc(OCC)c2)c1 [B2Q056-01, 4-[4-[[3-Ethoxy-5-(5-ethoxypyridin-3-yl)phenyl]methyl]piperazin-1-yl]-N-[3-nitro-4-(2-phenylsulfanylethylamino)phenyl]sulfonylbenzamide]

Molecule: 6-[4-[[4-(3-Ethoxyphenyl)-2,6-dimethoxyphenyl]methyl]piperazin-1-yl]-N-propylpyridazine-3-carboxamide [B1M021-01]
- ASMS ratio (%) n = 1 [2]: 0.0%
- ASMS ratio (%) n = 2 [2]: 0.0%

- ASMS ratio (%) n = 1 [1]: −0.3%
- ASMS ratio (%) n = 2 [1]: −1.6%
Molecule: CCOc1cncc(-c2ccc(CN3CCN(c4ccc(C(=O)Nc5ccc(OC)cc5)cc4)CC3)cc2C)c1 [B1O048-01, 4-[4-[[4-(5-Ethoxypyridin-3-yl)-3-methylphenyl]methyl]piperazin-1-yl]-N-(4-methoxyphenyl)benzamide]

Molecule: CCOc1cccc(-c2ccc(CN3CCN(c4ccc(C(=O)N(CC)CC)cc4)CC3)c(CC)c2)c1 [B4J049-01, 4-[4-[[4-(3-Ethoxyphenyl)-2-ethylphenyl]methyl]piperazin-1-yl]-N,N-diethylbenzamide]
- ASMS ratio (%) n = 1 [1]: 7.1%
- ASMS ratio (%) n = 2 [1]: −1.4%
